Data published in patent US8119624B2, “Fused phenyl amido heterocyclic compounds” (Pfizer Inc., priority 2006, dated 2012).
Where two headings read alike, the source gives them in different places.

Molecular target: T1, Full-length glucokinase (beta cell isoform) (Homo sapiens, UniProt P35557)
T1 construct: Full-length glucokinase (beta cell isoform) was His-tagged at N-terminus; His tag (N); made in house
T1 sequence (P35557 1-465): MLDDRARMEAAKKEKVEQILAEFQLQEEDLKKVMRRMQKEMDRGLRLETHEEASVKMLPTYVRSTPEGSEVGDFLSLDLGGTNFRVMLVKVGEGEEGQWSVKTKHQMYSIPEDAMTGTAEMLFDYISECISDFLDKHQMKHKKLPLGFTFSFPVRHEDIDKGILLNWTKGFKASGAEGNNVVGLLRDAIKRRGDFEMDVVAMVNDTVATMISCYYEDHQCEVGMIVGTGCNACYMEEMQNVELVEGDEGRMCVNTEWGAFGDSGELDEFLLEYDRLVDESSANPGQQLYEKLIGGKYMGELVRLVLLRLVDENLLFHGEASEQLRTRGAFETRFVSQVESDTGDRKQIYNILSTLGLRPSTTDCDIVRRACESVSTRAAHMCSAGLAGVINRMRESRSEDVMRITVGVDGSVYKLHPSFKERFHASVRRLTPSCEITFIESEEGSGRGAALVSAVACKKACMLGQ
Experiment: Glucokinase biochemical assay (PK/LDH-coupled, NADH depletion at 340 nm): % activation, EC50, % max activation
Conditions: 5 mM glucose; for activation at 10 µM: read-out: % Activation at 10 uM; for EC50: read-out: EC50; for Emax: fitted maximum activation, read-out: % Max Activation
How it was run: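 N-terminally His-tagged full-length human beta-cell glucokinase, room temperature, 5 mM glucose, 1 mM ATP, PK/LDH-coupled with 0.7 mM NADH, 1% DMSO final. Initial velocity from the 200–900 s slope of A340 decline. % activation = (Va/Vo−1)×100, measured across compound concentrations.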

[1] = 10 uM compound, % Activation=(Va/Vo−1)×100
[2] = compound at 10 uM, 1 mM ATP, room temperature

## CN(C)C(=O)c1ccc(Oc2cc(C(=O)Nc3ccn(C)n3)cc3sccc23)cc1F [Example 357, 4-(4-(Dimethylcarbamoyl)-3-fluorophenoxy)-N-(1-methyl-1H-pyrazol-3-yl)benzo[b]thiophene-6-carboxamide]
[1]
  activation at 10 µM: 32.7%

## Cc1ccc(NC(=O)c2cc(Oc3ccc(C(=O)N(C)C)c(F)c3)c3ccsc3c2)nc1 [Example 358, 4-(4-(Dimethylcarbamoyl)-3-fluorophenoxy)-N-(5-methylpyridin-2-yl)benzo[b]thiophene-6-carboxamide]
[1]
  activation at 10 µM: 50.4%
GK activation
  EC50: 0.33 µM
  Emax: 56%

## Cc1ccc(NC(=O)c2cc(Oc3ccc(S(C)(=O)=O)cc3)c3cc(C)sc3c2)nc1 [Example 359, 4-(4-Methanesulfonyl-phenoxy)-2-methyl-benzo[b]thiophene-6-carboxylic acid (5-methyl-pyridin-2-yl)-amide]
[1]
  activation at 10 µM: 69.9%
GK activation
  EC50: 0.19 µM
  Emax: 70%

## Cc1cc2c(Oc3ccc(S(C)(=O)=O)cc3)cc(C(=O)Nc3ccn(C)n3)cc2s1 [Example 360, 4-(4-(Methylsulfonyl)phenoxy)-2-methyl-N-(1-methyl-1H-pyrazol-3-yl)benzo[b]thiophene-6-carboxamide]
[1]
  activation at 10 µM: 129%
GK activation
  EC50: 0.62 µM
  Emax: 142%

## Cc1ccc(NC(=O)c2cc(Oc3ccc(C(=O)N(C)C)c(F)c3)c3cc(C)sc3c2)nc1 [Example 361, 4-(4-(Dimethylcarbamoyl)-3-fluorophenoxy)-2-methyl-N-(5-methylpyridin-2-yl)benzo[b]thiophene-6-carboxamide]
[1]
  activation at 10 µM: 4.2%

## Cc1cc2c(Oc3ccc(C(=O)N(C)C)c(F)c3)cc(C(=O)Nc3ccn(C)n3)cc2s1 [Example 362, 4-(4-(Dimethylcarbamoyl)-3-fluorophenoxy)-2-methyl-N-(1-methyl-1H-pyrazol-3-yl)benzo[b]thiophene-6-carboxamide]
[1]
  activation at 10 µM: 25.9%

## Cc1ccc(NC(=O)c2cc(Oc3ccc(S(C)(=O)=O)cc3)c3sccc3c2)nc1 [Example 363, 7-(4-Methanesulfonyl-phenoxy)-benzo[b]thiophene-5-carboxylic acid(5-methyl-pyridin-2-yl)-amide]
[1]
  activation at 10 µM: 52.3%
GK activation
  EC50: 7.65 µM
  Emax: 99%

## Cn1ccc(NC(=O)c2cc(Oc3ccc(S(C)(=O)=O)cc3)c3sccc3c2)n1 [Example 364, 7-(4-(Methylsulfonyl)phenoxy)-N-(1-methyl-1H-pyrazol-3-yl)benzo-[b]-thiophene-5-carboxamide]
[1]
  activation at 10 µM: 45.8%
GK activation
  EC50: > 10 µM

## Cc1ccc(NC(=O)c2cc(Oc3ccc(C(=O)N(C)C)c(F)c3)c3sccc3c2)nc1 [Example 365, 7-(4-(Dimethylcarbamoyl)-3-fluorophenoxy)-N-(5-methylpyridin-2-yl)benzo[b]thiophene-5-carboxamide]
[1]
  activation at 10 µM: 4%

## CN(C)C(=O)c1ccc(Oc2cc(C(=O)Nc3ccn(C)n3)cc3ccsc23)cc1F [Example 366, 7-(4-(Dimethylcarbamoyl)-3-fluorophenoxy)-N-(1-methyl-1H-pyrazol-3-yl)benzo[b]thiophene-5-carboxamide]
[1]
  activation at 10 µM: 6.4%

## Cc1ccc(NC(=O)c2cc(Oc3ccc(S(C)(=O)=O)cc3)c3ocnc3c2)nc1 [Example 367, N-(5-methylpyridin-2-yl)-7-[4-(methylsulfonyl)phenoxy]-1,3-benzoxazole-5-carboxamide]
[1]
  activation at 10 µM: 47%
GK activation
  EC50: 5.8 µM
  Emax: 59%

## Cc1nc2cc(C(=O)Nc3ccn(C)n3)cc(Oc3ccc(S(C)(=O)=O)cc3)c2o1 [Example 368, 2-Methyl-N-(1-methyl-1H-pyrazol-3-yl)-7-[4-(methylsulfonyl)-phenoxy]-1,3-benzoxazole-5-carboxamide]
[1]
  activation at 10 µM: 48.2%
GK activation
  EC50: > 10 µM

## Cc1ccc(NC(=O)c2cc(Oc3ccc(S(C)(=O)=O)cc3)c3oc(C)nc3c2)nc1 [Example 369, 2-Methyl-N-(5-methylpyridin-2-yl)-7-[4-(methylsulfonyl)-phenoxy]-1,3-benzoxazole-5-carboxamide]
[1]
  activation at 10 µM: 66.1%
GK activation
  EC50: 3.7 µM
  Emax: 66%

## Cc1ccc(NC(=O)c2cc(Oc3ccc(C(=O)N(C)C)cc3)c3oc(C)nc3c2)nc1 [Example 370, 7-{4-[(Dimethylamino)carbonyl]phenoxy}-2-methyl-N-(5-methylpyridin-2-yl)-1,3-benzoxazole-5-carboxamide]
[1]
  activation at 10 µM: 14.9%
GK activation
  EC50: 0.17 µM
  Emax: 3.5%

## Cc1ccc(NC(=O)c2cc(Oc3ccc(S(C)(=O)=O)cc3)c3ncsc3c2)nc1 [Example 371, N-(5-Methylpyridin-2-yl)-4-[4-(methylsulfonyl)phenoxy]-1,3-benzothiazole-6-carboxamide]
[1]
  activation at 10 µM: 35.5%

## CS(=O)(=O)c1ccc(Oc2cc(C(=O)Nc3ccccn3)cc3scnc23)cc1 [Example 372, 4-[4-(Methylsulfonyl)phenoxy]-N-pyridin-2-yl-1,3-benzothiazole-6-carboxamide]
[1]
  activation at 10 µM: 29.3%

## COc1cc(C(=O)Nc2ccc(C)cn2)c2nc(C)[nH]c2c1 [Example 373, 6-Methoxy-2-methyl-1H-benzoimidazole-4-carboxylic acid(5-methyl-pyridin-2-yl)-amide]
[1]
  activation at 10 µM: -1.1%

## Cc1ccc(NC(=O)c2cc(OCc3ccccc3Cl)c3c(c2)OC(C)(C)CC3)nc1 [Example 374, 5-(2-Chloro-benzyloxy)-2,2-dimethyl-chroman-7-carboxylic acid(5-methyl-pyridin-2-yl)-amide]
[1]
  % Activation at 10 uM: 17.7%

## Cc1ccc(NC(=O)c2cc(OCc3ccccc3Cl)cc3c2CCC(C)(C)O3)nc1 [Example 375, 7-(2-Chloro-benzyloxy)-2,2-dimethyl-chroman-5-carboxylic acid(5-methyl-pyridin-2-yl)-amide]
[1]
  % Activation at 10 uM: 5.6%

## Cc1ccc(NC(=O)c2cc(Oc3ccc(S(C)(=O)=O)cc3)c3c(c2)C(=O)N(C)C3)nc1 [Example 376, 2-Methyl-N-(5-methylpyridin-2-yl)-7-(4-(methylsulfonyl)-phenoxy)-3-oxoisoindoline-5-carboxamide]
1 mM ATP, room temperature
  EC50: 6.4 µM
[2]
  activation at 10 µM: 73.1%
1 mM ATP
  Emax: 90%

## Cn1ccc(NC(=O)c2cc(OCc3ccccc3)c3c(c2)C(=O)N(C2CC2)C3)n1 [Example 377, 7-(Benzyloxy)-2-cyclopropyl-N-(1-methyl-1H-pyrazol-3-yl)-3-oxoisoindoline-5-carboxamide]
[2]
  activation at 10 µM: 25.6%

## Cc1ccc(NC(=O)c2cc(OCc3ccccc3)c3c(c2)C(=O)N(C2CC2)C3)nc1 [Example 378, 7-(Benzyloxy)-2-cyclopropyl-N-(5-methylpyridin-2-yl)-3-oxoisoindoline-5-carboxamide]
[2]
  activation at 10 µM: -1.85%

## CCN1Cc2c(Oc3ccc(S(C)(=O)=O)cc3)cc(C(=O)Nc3ccc(C)cn3)cc2C1=O [Example 379, 2-Ethyl-N-(5-methylpyridin-2-yl)-7-(4-(methylsulfonyl)-phenoxy)-3-oxoisoindoline-5-carboxamide]
1 mM ATP, room temperature
  EC50: 4.5 µM
[2]
  activation at 10 µM: 74.1%
1 mM ATP
  Emax: 98%

## CCN1Cc2c(Oc3ccc(S(C)(=O)=O)cc3)cc(C(=O)Nc3ccn(C)n3)cc2C1=O [Example 380, 2-Ethyl-N-(1-methyl-1H-pyrazol-3-yl)-7-(4-(methylsulfonyl)-phenoxy)-3-oxoisoindoline-5-carboxamide]
1 mM ATP, room temperature
  EC50: > 10 µM
[2]
  activation at 10 µM: 67.9%
